Results: patent publication US9326986B2, “Quinazolinone, quinolone and related analogs as sirtuin modulators” (GLAXOSMITHKLINE LLC, priority 2008, dated 2016)

Biological target: T1, SIRT1 (Homo sapiens, UniProt Q96EB6)
T1 sequence (Q96EB6 1-747): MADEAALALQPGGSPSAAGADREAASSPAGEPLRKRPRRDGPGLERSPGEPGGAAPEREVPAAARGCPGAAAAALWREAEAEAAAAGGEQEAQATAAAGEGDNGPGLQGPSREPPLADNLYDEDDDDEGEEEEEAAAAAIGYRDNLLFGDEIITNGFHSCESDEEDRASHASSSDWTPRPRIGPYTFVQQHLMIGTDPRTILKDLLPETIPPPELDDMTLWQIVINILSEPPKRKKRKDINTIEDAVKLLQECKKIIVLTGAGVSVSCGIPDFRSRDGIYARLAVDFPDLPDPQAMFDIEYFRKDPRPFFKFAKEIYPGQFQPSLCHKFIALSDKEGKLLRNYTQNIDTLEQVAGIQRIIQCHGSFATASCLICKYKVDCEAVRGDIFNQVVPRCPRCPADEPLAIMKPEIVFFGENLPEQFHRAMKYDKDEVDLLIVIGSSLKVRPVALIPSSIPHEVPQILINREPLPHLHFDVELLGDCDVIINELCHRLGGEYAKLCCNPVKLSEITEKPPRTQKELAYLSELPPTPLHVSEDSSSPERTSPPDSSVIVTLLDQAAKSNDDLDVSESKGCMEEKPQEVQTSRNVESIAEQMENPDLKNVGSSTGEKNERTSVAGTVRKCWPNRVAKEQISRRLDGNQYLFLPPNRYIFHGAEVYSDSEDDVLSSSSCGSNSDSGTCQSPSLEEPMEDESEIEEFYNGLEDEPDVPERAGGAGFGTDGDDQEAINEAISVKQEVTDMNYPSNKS
Assay: Mass spectrometry based assay to identify modulators of SIRT1 activity (deacetylation of p53-based acetylated peptide)
Type: biochemical
Details: 10 nM SIRT1, 0.5 μM peptide substrate, 120 μM βNAD+, 25 minutes at 25° C.; for EC1.5 μM: SIRT1 activation

Compound | % Fold Act. (percent maximum fold activation) | EC1.5 μM
Cn1c(-c2cccnc2)nc2c(C(=O)Nc3ccccn3)cccc2c1=O [Compound 256] | B (Fold Activation<200%) | C (EC1.5>25 μM)
O=C(NC1CCOCC1)c1cccc2c(=O)cc(-c3cccc(C(F)(F)F)c3)[nH]c12 [Compound 412] | A (Fold activation>200%) | B (EC1.5 1-25 μM)
Cn1c(-c2ccc(Cl)cc2)nc2c(C(=O)Nc3ccccn3)cccc2c1=O [Compound 244] | B (Fold Activation<200%) | C (EC1.5>25 μM)
CC(C)Cn1c(-c2cccc(C(F)(F)F)c2)nc2c(NC(=O)c3cnccn3)cccc2c1=O [Compound 234] | A (Fold activation>200%) | A (EC1.5<1.0 μM)
Cn1nccc1-c1nc2c(NC(=O)c3cnccn3)cccc2c(=O)n1C [Compound 292] | B (Fold Activation<200%) | C (EC1.5>25 μM)
Cn1c(-c2cccc(C#N)c2)nc2c(C(=O)Nc3ccccn3)cccc2c1=O [Compound 253] | B (Fold Activation<200%) | C (EC1.5>25 μM)
O=C(Nc1ccccn1)c1cccc2c(=O)[nH]c(-c3ccccc3OC(F)(F)F)nc12 [Compound 320] | A (Fold activation>200%) | A (EC1.5<1.0 μM)
Cn1c(-c2ccc(OC(F)(F)F)cc2)nc2c(C(=O)Nc3ccccn3)cccc2c1=O [Compound 211] | B (Fold Activation<200%) | C (EC1.5>25 μM)
Cn1c(-c2cccc(C(F)(F)F)c2)nc2c(C(=O)Nc3cccc(CN4CCNCC4)n3)cccc2c1=O [Compound 348] | A (Fold activation>200%) | A (EC1.5<1.0 μM)
O=C(Nc1cnccn1)c1cccc2c(=O)cc(-c3cccc(Cl)c3)[nH]c12 [Compound 434] | B (Fold Activation<200%) | A (EC1.5<1.0 μM)
O=C(Nc1cccc2c(=O)cc(-c3cccc(C(F)(F)F)c3)[nH]c12)c1cncs1 [Compound 416] | A (Fold activation>200%) | A (EC1.5<1.0 μM)
Cn1c(-c2ccc(C(F)(F)F)cc2)nc2c(C(=O)Nc3ccccn3)cccc2c1=O [Compound 208] | B (Fold Activation<200%) | C (EC1.5>25 μM)
Cn1c(-c2ncccn2)nc2c(C(=O)Nc3ccccn3)cccc2c1=O [Compound 259] | B (Fold Activation<200%) | C (EC1.5>25 μM)
Cc1cc(NC(=O)c2cccc3c(=O)n(C)c(-c4cccc(C(F)(F)F)c4)nc23)n(C)n1 [Compound 295] | B (Fold Activation<200%) | C (EC1.5>25 μM)
Cc1nc(NC(=O)c2cccc3c(=O)n(C)c(-c4cccc(C(F)(F)F)c4)nc23)sc1C [Compound 298] | A (Fold activation>200%) | A (EC1.5<1.0 μM)
Cn1c(-c2cccc(C(F)(F)F)c2)nc2c(C(=O)Nc3ccncn3)cccc2c1=O [Compound 303] | A (Fold activation>200%) | B (EC1.5 1-25 μM)
Cc1cc(C)nc(NC(=O)c2cccc3c(=O)n(C)c(-c4cccc(C(F)(F)F)c4)nc23)c1 [Compound 306] | A (Fold activation>200%) | A (EC1.5<1.0 μM)
Cn1c(-c2cccc(C(F)(F)F)c2)nc2c(C(=O)Nc3nccs3)cccc2c1=O [Compound 205] | B (Fold Activation<200%) | B (EC1.5 1-25 μM)
CCn1c(-c2cccc(C(F)(F)F)c2)nc2c(C(=O)Nc3ccccn3)cccc2c1=O [Compound 269] | B (Fold Activation<200%) | B (EC1.5 1-25 μM)

Compound | % Fold Act. (percent maximum fold activation) | EC1.5 μM
O=C(Nc1cccc2c(=O)cc(-c3ccccc3C(F)(F)F)[nH]c12)c1cscn1 [Compound 444] | A (Fold activation>200%) | A (EC1.5<1.0 μM)
Cn1c(-c2cccc(C(F)(F)F)c2)nc2c(NS(=O)(=O)c3ccccn3)cccc2c1=O [Compound 362] | B (Fold Activation<200%) | C (EC1.5>25 μM)
O=C(Nc1nccs1)c1cccc2c(=O)cc(-c3ccccc3Cl)[nH]c12 [Compound 426] | A (Fold activation>200%) | A (EC1.5<1.0 μM)
Cn1cnc(C(=O)Nc2cccc3c(=O)n(C)c(-c4cccc(C(F)(F)F)c4)nc23)c1 [Compound 246] | A (Fold activation>200%) | A (EC1.5<1.0 μM)
Cn1c(-c2ccccc2C(F)F)nc2c(NC(=O)c3cnccn3)cccc2c1=O [Compound 314] | A (Fold activation>200%) | A (EC1.5<1.0 μM)
Cn1c(-c2cccc(C(F)(F)F)c2)nc2c(C(=O)Nc3cncc(OCC(O)CO)n3)cccc2c1=O (stereo not shown) [Compound 354] | A (Fold activation>200%) | A (EC1.5<1.0 μM)
Cn1c(-c2ccccn2)nc2c(NC(=O)c3cnccn3)cccc2c1=O [Compound 277] | B (Fold Activation<200%) | C (EC1.5>25 μM)
Cn1c(-c2cccc(C(F)(F)F)c2)nc2c(NC(=O)c3ccncn3)cccc2c1=O [Compound 245] | A (Fold activation>200%) | A (EC1.5<1.0 μM)
Cn1c(-c2cccc(C(F)(F)F)c2)nc2c(C(=O)Nc3nncs3)cccc2c1=O [Compound 299] | A (Fold activation>200%) | B (EC1.5 1-25 μM)
O=C(NC1CN2CCC1CC2)c1cccc2c(=O)cc(-c3cccc(C(F)(F)F)c3)[nH]c12 (stereo not shown) [Compound 414] | A (Fold activation>200%) | B (EC1.5 1-25 μM)
O=C(Nc1cnccn1)c1cccc2c(=O)cc(-c3cccc(C(F)(F)F)c3)[nH]c12 [Compound 403] | A (Fold activation>200%) | A (EC1.5<1.0 μM)
Cn1c(-c2cccc(CN3CCCC3)c2)nc2c(C(=O)Nc3ccccn3)cccc2c1=O [Compound 276] | B (Fold Activation<200%) | B (EC1.5 1-25 μM)
O=C(Nc1ccccn1)c1cccc2c(=O)[nH]c(-c3cccc(C(F)(F)F)c3)nc12 [Compound 218] | A (Fold activation>200%) | A (EC1.5<1.0 μM)
CCn1c(-c2cccc(C(F)(F)F)c2)nc2c(NC(=O)c3cnccn3)cccc2c1=O [Compound 232] | A (Fold activation>200%) | A (EC1.5<1.0 μM)
Cn1c(-c2cccc(C(F)(F)F)c2)nc2c(NC(=O)c3cccc(CN4CCOCC4)n3)cccc2c1=O [Compound 332] | A (Fold activation>200%) | A (EC1.5<1.0 μM)
O=C(Nc1cccnc1)c1cccc2c(=O)cc(-c3ccccc3Cl)[nH]c12 [Compound 441] | A (Fold activation>200%) | B (EC1.5 1-25 μM)
Cn1c(-c2ccccc2OC(F)F)nc2c(NC(=O)c3cnccn3)cccc2c1=O [Compound 312] | A (Fold activation>200%) | A (EC1.5<1.0 μM)
Cn1c(-c2cccc(C(F)(F)F)c2)nc2c(C(=O)Nc3cccc(OC[C@H](O)CO)n3)cccc2c1=O [Compound 353] | A (Fold activation>200%) | A (EC1.5<1.0 μM)
Cc1cc(NC(=O)c2cccc3c(=O)cc(-c4cccc(C(F)(F)F)c4)[nH]c23)n(C)n1 [Compound 407] | A (Fold activation>200%) | A (EC1.5<1.0 μM)
